Assay results reported in ChEMBL document CHEMBL1148200, “Kulokekahilide-2, a cytotoxic depsipeptide from a cephalaspidean mollusk Philinopsis speciosa” (J Nat Prod, 2004).

Legend:
[1] = system: A10; assay: Cytotoxicity against rat A10 cells; type: cell-based
[2] = system: SK-OV-3; assay: Cytotoxicity against human SKOV3 cells; type: functional, cell-based
[3] = system: MDA-MB-435; assay: Cytotoxicity against human MDA-MB-435 cells; type: functional, cell-based
[4] = system: P388; assay: Cytotoxicity against mouse P388 cells; type: functional, cell-based

C/C=C(\C)[C@H]1OC(=O)[C@H](C)NC(=O)[C@H]([C@@H](C)CC)NC(=O)CN(C)C(=O)[C@H](Cc2ccccc2)N(C)C(=O)[C@@H](C)NC(=O)[C@@H](CC(C)C)OC(=O)/C(C)=C/C[C@H](O)[C@@H]1C showed an IC50 [1] of 59.1 nM, an IC50 [2] of 7.5 nM and an IC50 [3] of 14.6 nM. For the same compound, the IC50 [4] was 4.2 nM.
